Test results: PMC10404671, “Deciphering the biosynthesis of a novel lipid in Mycobacterium tuberculosis expands the known roles of the nitroreductase superfamily” (The Journal of Biological Chemistry, 2023)

Key:
[1] = target: T1, TyzB (Mycobacterium tuberculosis, UniProt P95234)
T1 construct: gene moeW

[2] = target: T2, TyzA (Mycobacterium tuberculosis, UniProt P95232)
T2 construct: gene Rv2336

[3] = target: T3, TyzC (Mycobacterium tuberculosis, UniProt P95233)
T3 construct: gene Rv2337c
T3 sequence (P95233 entry or part of it): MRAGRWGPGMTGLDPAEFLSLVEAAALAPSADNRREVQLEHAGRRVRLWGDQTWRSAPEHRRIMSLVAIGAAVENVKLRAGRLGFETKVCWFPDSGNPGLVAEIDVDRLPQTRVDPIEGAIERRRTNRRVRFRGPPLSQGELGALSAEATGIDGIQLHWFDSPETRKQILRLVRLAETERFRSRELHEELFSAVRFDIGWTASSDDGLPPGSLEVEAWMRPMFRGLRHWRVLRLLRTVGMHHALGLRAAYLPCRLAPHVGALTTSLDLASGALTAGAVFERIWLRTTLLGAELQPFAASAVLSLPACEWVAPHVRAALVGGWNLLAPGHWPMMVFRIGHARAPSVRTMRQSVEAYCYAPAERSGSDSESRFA

T2 sequence (P95232 entry or part of it): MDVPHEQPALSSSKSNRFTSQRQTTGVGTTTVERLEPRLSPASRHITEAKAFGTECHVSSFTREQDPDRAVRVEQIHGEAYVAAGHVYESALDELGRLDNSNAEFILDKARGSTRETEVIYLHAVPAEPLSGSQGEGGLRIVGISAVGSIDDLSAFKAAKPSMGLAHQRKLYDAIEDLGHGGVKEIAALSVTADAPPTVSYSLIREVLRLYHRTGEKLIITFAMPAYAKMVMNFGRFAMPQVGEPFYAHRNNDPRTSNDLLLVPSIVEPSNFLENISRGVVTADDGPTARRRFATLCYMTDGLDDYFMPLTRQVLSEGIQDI
T1 sequence (P95234 entry or part of it): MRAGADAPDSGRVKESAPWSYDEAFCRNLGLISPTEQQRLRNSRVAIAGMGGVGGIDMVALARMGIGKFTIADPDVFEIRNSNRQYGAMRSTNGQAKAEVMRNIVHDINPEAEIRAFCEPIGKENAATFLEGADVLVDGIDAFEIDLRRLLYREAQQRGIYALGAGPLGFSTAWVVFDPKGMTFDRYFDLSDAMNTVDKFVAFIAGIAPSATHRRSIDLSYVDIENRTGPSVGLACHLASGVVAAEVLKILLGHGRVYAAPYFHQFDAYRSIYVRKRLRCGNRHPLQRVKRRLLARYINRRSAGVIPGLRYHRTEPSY

## Nc1ncnc2c1ncn2[C@@H]1O[C@H](COP(=O)(O)OP(=O)(O)OP(=O)(O)O)[C@@H](O)[C@H]1O [ATP]
[1]
  LC-QTOF endpoint assay, purified TyzA plus RHA1 pTip-TyzBC lysate: performed ATP-dependent cyclization and O2-dependent desaturation of C12:0-L-Tyr, respectively

## CCCCCCCCCCCC(=O)SCCNC(=O)CCNC(=O)[C@H](O)C(C)(C)COP(=O)(O)OP(=O)(O)OC[C@H]1O[C@@H](n2cnc3c(N)ncnc32)[C@H](O)[C@@H]1OP(=O)(O)O [C12:0-CoA]
[2]
  KiS: 450 ± 90 µM

## CCCCCCCCCCCC(=O)N[C@@H](Cc1ccc(O)cc1)C(=O)O [C12:0-L-Tyr]
[3]
  LC-QTOF endpoint assay, purified TyzA plus RHA1 pTip-TyzBC lysate: performed ATP-dependent cyclization and O2-dependent desaturation of C12:0-L-Tyr, respectively
